Measured values as given in publication PMC10622577, “Structural basis for stabilisation of the RAD51 nucleoprotein filament by BRCA2” (Nature Communications, 2023).

Key:
[1] = test system: RAD51 D184A, D187A NPFs; test: SPR of TR2 binding to RAD51 D184A, D187A NPFs; design: species or system human
Experimental: We investigated further the effect of the acidic patch mutations on TR2 binding using surface plasmon resonance (SPR). We developed an SPR assay whereby increasing amounts of TR2 peptide were added to RAD51 NPFs that had been assembled on biotinylated DNA coupled to a streptavidin chip (Supplementary Fig. 3A, Supplementary Table 1). […] We used the same SPR assay to assess the effect of the mutations on the ability of BRC4 to disrupt an established filament (Supplementary Fig. 4A, Supplementary Table 1).
All SPR experiments were performed using a Biacore T200 instrument and an S-series SA (Streptavidin) sensor chip. A single chip was used to immobilise biotinylated single- and double-stranded DNA in buffer: 25 mM HEPES pH 7.4, 100 mM NaCl, 1 mM EDTA. ssDNA and dsDNA were immobilised in different channels to a signal of 120 RU and 250 RU, respectively.
All binding experiments were performed in CMA buffer: 25 mM HEPES pH 7.4, 100 mM NaCl, 2 mM DTT, 2 mM ATP, 5 mM CaCl2, 5 mM MgCl2. 1 μM RAD51 (wild-type, D184A or D184A, D187A mutant proteins) was injected for 120 seconds followed by buffer for 120 seconds at a flow rate of 10 μl/min. TR2 or BRC4 peptides were then injected in a concentration titration series of 0.1, 0.25, 0.5, 0.75, 1, 2, 3, 5, 7.5, 10 and 15 μM for 120 seconds at a flow rate of […] followed by a dissociation time of 240 seconds. After each injection of BRCA2 peptide, the sensor chip was regenerated with buffer comprising of CMA buffer with 1 M NaCl for 120 seconds at a flow rate of 100 μl/min. All experiments were performed in triplicate.
For the BRCA2 TR2 titration series, blank-subtracted sensorgrams were used to extract the maximum response accumulated after each TR2 injection. TR2 response accumulation was corrected to account for differences in RAD51 filament formation between runs, by multiplying the maximum response by a scale factor calculated as the ratio between mean RAD51 filament accumulation on each DNA substrate and the mean RAD51 accumulated for each mutant for each triplicate. The first experiment of the triplicate series for binding of TR2 to the D184A, D187A RAD51 NPF on dsDNA was discounted due to a failed peptide injection.
All graph plotting and statistical analysis was performed using Prism 9.3.1 (GraphPad). […] Data for each mutant on each substrate were fitted with a non-linear one-phase exponential decay.
(§1) Supplementary table 1. DNA oligos and peptides
(§2) Oligos Size (nt) Sequence (5’ – 3’)
(§3) D184A […] (forward),
(§4) D184A, D187A […] (forward),
EMSA, SPR, CryoEM (micrographs, […]
(§5) Supplementary figs. 3, 4 (ssDNA) 60 Biotin-[…]
(§6) Supplementary figs. 3, 4 (dsDNA) 60 Biotin-[…],
(§7) Panel A (ssDNA) 32 Cy5-[…]
(§8) Panel B (dsDNA) 50 […]-Cy3,
(§9) Panel B (ssDNA) 60 Biotin-[…]-
(§10) Panel B (dsDNA) 60 Biotin,
Panel C (ssDNA) 32 Biotin-[…]-Biotin […]

[2] = test system: RAD51 D184A, D187A NPFs; test: EMSA of TR2 titration on RAD51 D184A, D187A NPFs; type: binding, human
Experimental: To assess RAD51 nucleoprotein (NPF) formation, wild-type and mutant RAD51 proteins were incubated with DNA in buffer: 25 mM HEPES pH 7.5, 150 mM NaCl, 2 mM DTT, 2 mM ATP, 5 mM CaCl2 for 15 minutes at room temperature. For filament binding of the TR2 peptide or His6-MBP-TR2 protein, the RAD51 NPFs were incubated with TR2 for further 5 minutes at room temperature. For filament binding of BRC4, the BRC4 peptide was pre-mixed with RAD51 for 10 minutes at room temperature before addition of DNA. For experiments with mono-streptavidin (mSA)-capped DNA, mSA (Sigma) was added in 5× molar excess of biotin labels for 15 minutes at room temperature prior to the addition of RAD51. Concentrations are provided in figures and DNA sequences for each experiment are reported in Supplementary Table 1.
Before electrophoresis, samples were mixed with a 0.5:1 volume of 50% (w/v) sucrose solution and analysed on a pre-run 0.5% (w/v) agarose gel in 0.5× TB buffer at 35 V for 2.5 hours at 4 °C. DNA was visualised by excitation of the fluorescent tag or, in the case of unlabelled DNA, by SYBR Gold staining. Gels were imaged in a Typhoon FLA9000 by excitation at 473 nm for fluorescein-labelled DNA or SYBR Gold-stained gels, 532 nm excitation for Cy3-labelled DNA or 635 nm excitation for Cy5-labelled DNA.
as §1, §2, §3, §4
EMSA, SPR, CryoEM (micrographs,
Panels C, D (ssDNA) 60 FAM-[…]
Panels C, D (dsDNA) 60 FAM-[…],
Panels E, F (ssDNA) 60 Biotin-[…]
Panels E, F (dsDNA) 60 Biotin-[…],
as §5, §6, §7, §8, §9, §10
Panel C (ssDNA) 32 Biotin-[…]-Biotin
Panel C (dsDNA) 50 Biotin-[…]-Cy3,
Supplementary fig. 5A 50 […]-Cy3,
Supplementary fig. 5B (ssDNA) 32 Cy5-[…]-Biotin,
Supplementary fig. 5B (ssDNA) 32 Biotin-[…]-Biotin
Supplementary fig. 5B (dsDNA) 50 Biotin-[…],
Panels B, C, D (ssDNA) 60 FAM-[…]
Panels F, G (ssDNA) 60 […]

Sequence: DDQKNCKKRRALDFLSRLPLPPPVSPICTFVSPAAQKAFQPPRSCGTKY [TR2, BRCA2 TR2 peptide spanning amino acids 3260 to 3308]
- TR2 binding by SPR relative to D184A mutant ([1]; D187A compared with single D184A, n = 3): weaker binding compared with the single D184A mutant
- TR2 binding by SPR relative to wild-type ([1]; D187A, Biacore T200, streptavidin chip, biotinylated ss- or dsDNA, CMA buffer pH 7.4, 1 μM RAD51, TR2 0.1-15 μM, 120 s, n = 3 (one dsDNA run discounted, failed injection)): clear reduction in TR2 binding
- residual TR2 binding ([1]; D187A, SPR Fig. 1E, authors' response to reviewers): retain a degree of binding
- impact of mutation on TR2 binding by SPR, ssDNA versus dsDNA ([1]; D187A, ssDNA compared with dsDNA, n = 3): stronger for NPFs formed on ssDNA
- residual TR2 binding ([2]; EMSA Fig. 1C, authors' response to reviewers): retain a degree of binding
- reduction in TR2 binding, ssDNA versus dsDNA filaments ([2]; EMSA, ssDNA compared with dsDNA): especially pronounced for filaments formed on ssDNA
- TR2 binding relative to wild-type ([2]; ss- and dsDNA, 25 mM HEPES pH 7.5, 150 mM NaCl, 2 mM ATP, 5 mM CaCl2, TR2 5 min, room temperature, ssDNA performed twice, dsDNA once): reduction in TR2 binding proportional to the decrease in charge at RAD51’s acidic patch
